Where two headings read alike, the source gives them in different places.
Columns and labels:
[1] = tested on: U87 glioblastoma cells; assay: In vitro adhesion assay to ECM proteins, U87; assay type: cell-based, human; details: 16 h pretreatment, mean ± SE of 3 experiments
Description: In vitro adhesion assays were used to evaluate the effects of [VO(SO4)(Me2-Phen)2] on the adhesive properties of U87 and MDA-MD-231 cells as described previously (Narla et al., Clin Cancer Res, 4: 2463-2471, 1998). The plates for the adhesion assays were pre-coated with the extracellular matrix (ECM) proteins laminin, fibronectin, vitronectin and type IV collagen (each at a final concentration of 1 μg/ml in PBS) overnight at 4° C. and dried. Exponentially-growing cells (as described in the previous Example) were incubated with [VO(SO4)(Me2-Phen)2] at concentrations ranging from 0.5 μM to 25 μM for 16 hours in a humidified 5% CO2 atmosphere. The cells were then detached from the flasks with 0.05% trypsin (Life Technologies), resuspended in medium, incubated at 37° C. for 2 hours to allow them to recover from the trypsinization stress and examined for their ability to adhere to the plates precoated with ECM proteins. Cells were centrifuged, washed twice with serum-free medium, counted and resuspended in serum-free medium at a final concentration of 2.5×10^5 cells/ml. The cell suspension was added to each well in aliquots of 100 μl and the cells were allowed to adhere for one hour at 37° C. in a humidified 5% CO2atmosphere. The non-adherent cells were removed by gently washing the cells with PBS. The adherent fraction was quantitated using MTT assays as previously described (Narla, Supra).
U87 glioblastoma and MDA-MD-231 breast cancer cells were preincubated with various concentrations of [VO(SO4)(Me2-Phen)2] and processed for adhesion assays. [VO(SO4)(Me2-Phen)2] inhibited adhesion of the U87 and MDA-MB-231 cells to extracellular matrix (ECM) proteins, Pretreatment of cells with [VO(SO4)(Me2-Phen)2] inhibited the adhesion of U87 glioblastoma and MDA-MB-231 breast cancer cells to laminin-, fibronectin-, vitronectin- and collagen-coated plates. The inhibition of glioblastoma cell adhesion was concentration-dependent with mean (±SE) IC50 values from 3 independent experiments shown in the table below.

[2] = tested on: U87 human glioblastoma cells; assay: MTT cytotoxicity assay, U87; assay type: cell-based; details: 48 h incubation, 3 independent experiments, read-out: IC50 (mean ± SE)
Description: (§1) Human brain tumor cells lines U87 MG (Cat.# HTB-14), U118 MG (Cat. # HTB-15), U138 (Cat # HTB-16), U373 MG (CAT. # HTB-17), and T98G (Cat. # CRL-1690) and breast cancer cell lines BT-20 (Cat # HTB-19), MDA-MB-231 (Cat # HTB-26), MDA-MB-361 (Cat # HTB-27), and MCF-7 (Cat # HTB-22) were obtained from American Type Culture Collection (ATCC, Rockville, Md.) and maintained as continuous cell lines in Dulbecco's modified Eagles's medium (U87, U118, U138, U373, T98 and BT-20) or Leibovitz's L-15 medium (MDA-MB-231 and MDA-MB-361). All media were supplemented with 10% fetal calf serum (FCS), 4 mM glutamine, 100 U/ml penicillin G and […] streptomycin sulfate. All tissue culture reagents were obtained from Life Technologies Inc. (GIBCO-BRL, Gaithersburg, Md.).
(§2) The cytotoxicity of [VO(SO4)(Me2-Phen)2] against human cancer cell lines was analyzed using the MTT (3-[4,5-dimethylthiazol-2-yl]-2,5-diphenyl tetrazolium bromide) assay (Boehringer Mannheim Corp., Indianapolis, Ind.) as described previously (Narla et al., Clin Cancer Res., 4: 1405-1414, 1998). […] The absorbance at 540 nm (a reference wavelength of 690 nm was used) of the solution in each well was measured using a microplate reader (Labsystems). The percent survival and the IC50 values were calculated using Graphpad Prism v2.0 (Graphpad Software, Inc., San Diego, Calif.) as described previously (Narla et al., Supra). […]

[3] = tested on: U373 human glioblastoma cells; assay: MTT cytotoxicity assay, U373; assay type: cell-based; details: 48 h incubation, 3 independent experiments, read-out: IC50 (mean ± SE)
Description: as §1, §2

SMILES: Cc1ccnc2c1ccc1c(C)ccnc12.Cc1ccnc2c1ccc1c(C)ccnc12.O=S(=O)([O-])[O-].[O]=[V+2] [[VO(SO4)(Me2-Phen)2], bis(4,7-dimethyl-1,10-phenanthroline) sulfatooxovanadium (IV)]
- IC50 ([1]; U87, fibronectin-coated plates, read-out: IC50 inhibition of adhesion to fibronectin): 1300 nM
- IC50 ([1]; U87, laminin-coated plates, read-out: IC50 inhibition of adhesion to laminin): 1400 ± 100 nM
- IC50 ([1]; U87, type IV collagen-coated plates, read-out: IC50 inhibition of adhesion to collagen): 1200 nM
- IC50 ([1]; U87, vitronectin-coated plates, read-out: IC50 inhibition of adhesion to vitronectin): 1200 ± 100 nM
- IC50 [2]: 2100 ± 600 nM
- IC50 [3]: 2000 ± 400 nM

Reference: patent US6878388B1, “Vanadium compounds for treating proliferative cell disorders” (Parker Hughes Institute, priority 2000, dated 2005)
